Article PMC12563681, “Cecytb-2, a Cytochrome b561 Homolog, Functions as an Ascorbate-Specific Transmembrane Ferric Reductase at Intestinal Lumens of Caenorhabditis elegans” (Biomolecules, 2025)

Key:
Cecytb-2 (Cecytb-2-H6) [1] = target: T1, Cecytb-2 (Cecytb-2-H6) (Caenorhabditis elegans, UniProt O16271); assay: pulse radiolysis, heme oxidation at […] nm; design: gene CELE_F39G3.5; conditions: electron acceptor; 10 mM AsA present, pH 7.0, 1% octyl glucoside
T1 sequence (O16271 1-251): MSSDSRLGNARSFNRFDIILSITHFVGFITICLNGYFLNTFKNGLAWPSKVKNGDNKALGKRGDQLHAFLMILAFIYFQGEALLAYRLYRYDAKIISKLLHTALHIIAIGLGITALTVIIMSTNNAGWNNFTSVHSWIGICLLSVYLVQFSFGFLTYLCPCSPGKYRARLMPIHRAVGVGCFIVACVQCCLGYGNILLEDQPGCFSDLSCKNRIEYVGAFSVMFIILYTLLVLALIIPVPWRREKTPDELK

Cecytb-2 (Cecytb-2-H6) [2] = target: T1, Cecytb-2 (Cecytb-2-H6); assay: stopped-flow heme reduction at […] nm; type: biochemical; design: gene CELE_F39G3.5; full length, 251 residues, 28,127 Da native; expressed in Pichia pastoris GS115, purified from microsomes in octyl glucoside; Ser2, Ser3 at N-terminus; two b hemes; conditions: electron donor; pH 7.0, 1% octyl glucoside, about 25 °C

SMILES | pulse radiolysis, heme oxidation at 435 nm (Cecytb-2 (Cecytb-2-H6) [1]) | stopped-flow heme reduction at 426 nm (Cecytb-2 (Cecytb-2-H6) [2])
[O]C1=C(O)[C@@H]([C@@H](O)CO)OC1=O [MDA radical] | heme oxidation of Cecytb-2-H6 by the generated MDA radical | 
O=C1O[C@H]([C@@H](O)CO)C(O)=C1O [AsA] |  | second-order rate constant (k1) for the heme reduction with AsA was estimated
